Laboratory results as given in US8865756B2, “Inhibitors of HCV NS5A” (Presidio Pharmaceuticals, Inc., priority 2008, dated 2014).

system: HCV 1b_Huh-Luc/Neo-ET cell line persistently expressing a bicistronic genotype 1b replicon in Huh 7 cells; experiment: HCV replicon assay (luciferase readout); type: cell-based; details: Hepatitis C virus, Huh-7, 72 h, read-out: Inhibition of HCV genotype 1b
Procedure, shortened: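 Huh 7 cells carrying a genotype 1b luciferase/neo replicon treated in triplicate for 72 h, then luciferase activity measured. Signal expressed as % of control; EC50 from four-parameter logistic fit, determined several times.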

`O=C(N[C@@H](C(=O)N1CCC[C@H]1c1ncc(-c2ccc(C#Cc3ccc(-c4cnc([C@@H]5CCCN5C(=O)[C@H](NC(=O)N5CC[C@@H](O)C5)c5ccccc5)[nH]4)cc3)cc2)[nH]1)c1ccccc1)N1CC[C@@H](O)C1` [Compound 252] and `O=C(N[C@@H](C(=O)N1CCC[C@H]1c1ncc(-c2ccc(C#Cc3ccc(-c4cnc([C@@H]5CCCN5C(=O)[C@H](NC(=O)N5CCCC5)c5ccccc5)[nH]4)cc3)cc2)[nH]1)c1ccccc1)N1CCCC1` [Compound 249] cannot be ordered by EC50: < 1 nM for the first, < 1 nM for the second.

`COC(=O)N[C@@H](C(=O)N[C@@H](C)c1ncc(-c2ccc(C#Cc3ccc(-c4cnc([C@H](C)NC(=O)[C@H](NC(=O)OC)C(C)C)[nH]4)cc3)cc2)[nH]1)C(C)C` [Compound 950] and `COC(=O)N[C@H](C(=O)N[C@@H](C)c1ncc(-c2ccc(C#Cc3ccc(-c4cnc([C@H](C)NC(=O)[C@@H](NC(=O)OC)[C@@H](C)O)[nH]4)cc3)cc2)[nH]1)[C@@H](C)O` [Compound 969] cannot be ordered by EC50: < 1 nM for the first, < 1 nM for the second.

`COC(=O)N[C@@H](C(=O)N1CCC[C@H]1c1ncc(-c2ccc(C#Cc3ccc(-c4cnc([C@@H]5CCCN5C(=O)[C@H](NC(=O)OC)c5ccccc5)[nH]4)cc3)cc2)[nH]1)c1ccccc1` [Compound 156] and `COC(=O)N[C@@H](C(=O)N1CCC[C@H]1c1ncc(-c2ccc(C#Cc3ccc(-c4cnc([C@@H]5CCCN5C(=O)[C@H](OC)c5ccccc5)[nH]4)cc3)cc2)[nH]1)c1ccccc1` [Compound 179] cannot be ordered by EC50: < 1 nM for the first, < 1 nM for the second.

`CC(C)(C)OC(=O)N[C@@H](C(=O)N1CCC[C@H]1C(=O)NCc1ccc(C#Cc2ccc(-c3cnc([C@@H]4CCCN4C(=O)[C@H](NC(=O)OC(C)(C)C)c4ccccc4)[nH]3)cc2)cc1)c1ccccc1` [Compound 189] and `CC(C)(C)OC(=O)N[C@@H](C(=O)N1CCC[C@H]1c1ncc(-c2ccc(C#Cc3ccc(-c4nnc([C@@H]5CCCN5C(=O)[C@H](NC(=O)OC(C)(C)C)c5ccccc5)[nH]4)cc3)cc2)[nH]1)c1ccccc1` [Compound 246] cannot be ordered by EC50: < 1 nM for the first, < 1 nM for the second.

`O=C(N[C@@H](C(=O)N1CCC[C@H]1c1nc(-c2ccc3cc(C#Cc4cnc([C@@H]5CCCN5C(=O)[C@H](NC(=O)N5CC[C@@H](O)C5)c5ccccc5)[nH]4)ccc3c2)c[nH]1)c1ccccc1)N1CC[C@@H](O)C1` [Compound 807] and `O=C(N[C@@H](C(=O)N1CCC[C@H]1c1ncc(C#Cc2ccc(-c3cnc([C@@H]4CCCN4C(=O)[C@H](NC(=O)N4CCOCC4)c4ccccc4)[nH]3)cc2)[nH]1)c1ccccc1)N1CCOCC1` [Compound 102] fall in the same range of EC50: 1 to 9.9 nM for the first, 1 to 9.9 nM for the second.

Compared with `O=S(=O)(Cc1ccccc1)N1CCC[C@H]1c1ncc(-c2ccc(C#Cc3ccc4nc([C@@H]5CCCN5S(=O)(=O)Cc5ccccc5)[nH]c4c3)cc2)[nH]1` [Compound 1042], `COC(=O)N[C@H](C(=O)N1CCC[C@H]1c1ncc(-c2ccc(C#Cc3ccc4nc([C@@H]5CCCN5C(=O)[C@@H](c5ccccc5)N(C)C)[nH]c4c3)cc2)[nH]1)C(C)C` [Compound 860] is lower in EC50: > 1000 nM for the first, < 1 nM for the second.

First: CC(C)[C@@H](NC(=O)N1CCCC1)C(=O)N1CCC[C@H]1c1ncc(-c2ccc(C#Cc3ccc(-c4cnc([C@@H]5CCCN5C(=O)[C@H](NC(=O)N5CCCC5)C(C)C)[nH]4)cc3)cc2)[nH]1 [Compound 293]
Second: COC(=O)N[C@H](C(=O)N1CCC[C@H]1c1ncc(-c2ccc(C#Cc3ccc(-c4cnc([C@@H]5CCCN5C(=O)[C@H](C(C)C)N(C)C)[nH]4)cc3)cc2)[nH]1)C(C)C [Compound 953]
The EC50 of the first is higher: > 1000 nM for the first, 1 to 9.9 nM for the second.

Compared with `CN1CCN(C(=O)N[C@@H](C(=O)N2CCC[C@H]2c2ncc(C#Cc3ccc(-c4cnc([C@@H]5CCCN5C(=O)[C@H](NC(=O)N5CCN(C)CC5)c5ccccc5)[nH]4)cc3)[nH]2)c2ccccc2)CC1` [Compound 118], `O=C(N[C@@H](C(=O)N1CCC[C@H]1c1ncc(C#Cc2ccc(-c3ccc(-c4cnc([C@@H]5CCCN5C(=O)[C@H](NC(=O)N5CCOCC5)c5ccccc5)[nH]4)cc3)cc2)[nH]1)c1ccccc1)N1CCOCC1` [Compound 761] is lower in EC50: 10 to 999 nM for the first, < 1 nM for the second.

`COC(=O)N[C@@H](C(=O)N1CCC[C@H]1c1ncc(-c2ccc(C#Cc3ccc(-c4cnc([C@@H]5CCCN5C(=O)[C@H](NC(=O)OC)c5ccccc5)[nH]4)c(F)c3)cc2)[nH]1)c1ccccc1` [Compound 1013] and `CCN(CC)[C@@H](C(=O)N1CCC[C@H]1c1ncc(-c2ccc(C#Cc3ccc(-c4cnc([C@@H]5CCCN5C(=O)[C@H](NC(=O)OC)c5ccccc5)[nH]4)cc3)cc2)[nH]1)c1ccccc1` [Compound 175] cannot be ordered by EC50: < 1 nM for the first, < 1 nM for the second.

`C[C@@H](NC(=O)C1CC1)C(=O)N1CCC[C@H]1c1ncc(-c2ccc(C#Cc3ccc(-c4cnc([C@@H]5CCCN5C(=O)[C@@H](C)NC(=O)C5CC5)[nH]4)cc3)cc2)[nH]1` [Compound 154] and `CC(C)[C@@H](NC(=O)C1CC1)C(=O)N1CCC[C@H]1c1ncc(C#Cc2ccc(-c3cnc([C@@H]4CCCN4C(=O)[C@H](NC(=O)C4CC4)C(C)C)[nH]3)cc2)[nH]1` [Compound 107] fall in the same range of EC50: 1 to 9.9 nM for the first, 1 to 9.9 nM for the second.

`CC(=O)N[C@@H](C(=O)N1CCC[C@H]1c1ncc(C#Cc2ccc(C#Cc3cnc([C@@H]4CCCN4C(=O)[C@H](NC(C)=O)c4ccccc4)[nH]3)cc2)[nH]1)c1ccccc1` [Compound 306] and `CN(C)C(=O)N[C@@H](C(=O)N1CCC[C@H]1c1ncc(C#Cc2ccc(C#Cc3cnc([C@@H]4CCCN4C(=O)[C@H](NC(=O)N(C)C)c4ccccc4)[nH]3)cc2)[nH]1)c1ccccc1` [Compound 308] cannot be ordered by EC50: < 1 nM for the first, < 1 nM for the second.

`COC(=O)N[C@H](C(=O)N1CSC[C@H]1c1ncc(-c2ccc(C#Cc3ccc4nc([C@@H]5CCCN5C(=O)[C@@H](NC(=O)OC)C(C)C)[nH]c4c3)cc2)[nH]1)C(C)C` [Compound 1026] and `COC(=O)N[C@H](C(=O)N1CC[C@H](O)[C@H]1c1ncc(-c2ccc(C#Cc3ccc4nc([C@@H]5CCCN5C(=O)[C@@H](NC(=O)OC)C(C)C)[nH]c4c3)cc2)[nH]1)C(C)C` [Compound 1068] cannot be ordered by EC50: < 1 nM for the first, < 1 nM for the second.

`COC(=O)N[C@H](C(=O)N1CCC[C@H]1c1ncc(-c2ccc(C#Cc3ccc4nc([C@@H]5CCCN5C(=O)[C@@H](NC(=O)OC)[C@@H](C)OC)[nH]c4c3)cc2)[nH]1)[C@@H](C)OC` [Compound 862] and `CC[C@@H](C)[C@H](NC(=O)OC)C(=O)N1CCC[C@H]1c1ncc(-c2ccc(C#Cc3ccc4nc([C@@H]5CCCN5C(=O)[C@@H](NC(=O)OC)[C@H](C)CC)[nH]c4c3)cc2)[nH]1` [Compound 1024] cannot be ordered by EC50: < 1 nM for the first, < 1 nM for the second.

First: COC(=O)N[C@H](C(=O)N1CCC[C@H]1c1nc(-c2cnc3cc(C#Cc4ccc(-c5cnc([C@@H]6CCCN6C(=O)[C@@H](NC(=O)OC)C(C)C)[nH]5)cc4)ccc3c2)c[nH]1)C(C)C [Compound 1088]
Second: COC(=O)N[C@H](C(=O)N1CCC[C@H]1c1ncc(-c2ccc(C#Cc3ccc(-c4cnc([C@@H]5CCCN5C(=O)[C@@H](Nc5cccnc5)C(C)C)[nH]4)cc3)cc2)[nH]1)C(C)C [Compound 995]
The EC50 of the first is higher: 1 to 9.9 nM for the first, < 1 nM for the second. The second is the more potent here.

`O=C(N[C@@H](C(=O)N1CCC[C@H]1C(=O)NCCc1ccc(C#Cc2cnc([C@@H]3CCCN3C(=O)[C@H](NC(=O)C3CC3)c3ccccc3)[nH]2)cc1)c1ccccc1)C1CC1` [Compound 125] and `O=C(N[C@@H](C(=O)N1CCC[C@H]1C(=O)NCc1ccc(C#Cc2cnc([C@@H]3CCCN3C(=O)[C@H](NC(=O)C3CC3)c3ccccc3)[nH]2)cc1)c1ccccc1)C1CC1` [Compound 121] cannot be ordered by EC50: < 1 nM for the first, < 1 nM for the second.

`O=C(N[C@@H](C(=O)N1CCC[C@H]1c1cc(-c2ccc(C#Cc3ccc(-c4cnc([C@@H]5CCCN5C(=O)[C@H](NC(=O)C5CC5)c5ccccc5)[nH]4)cc3)cc2)n[nH]1)c1ccccc1)C1CC1` [Compound 212] and `O=C(NC[C@@H]1CCCN1C(=O)[C@H](NC(=O)C1CC1)c1ccccc1)c1ccc(C#Cc2ccc(-c3cnc([C@@H]4CCCN4C(=O)[C@H](NC(=O)C4CC4)c4ccccc4)[nH]3)cc2)cc1` [Compound 193] cannot be ordered by EC50: < 1 nM for the first, < 1 nM for the second.

`CC(C)(C)OC(=O)N[C@@H](C(=O)N1CCC[C@H]1c1ncc(C#Cc2ccc(-c3ccc(-c4cnc([C@@H]5CCCN5C(=O)[C@H](NC(=O)OC(C)(C)C)c5ccccc5)[nH]4)cc3)cc2)[nH]1)c1ccccc1` [Compound 757] and `COC(=O)N[C@@H](C(=O)N1CCC[C@H]1c1ncc(C#Cc2ccc(-c3ccc(-c4cnc([C@@H]5CCCN5C(=O)[C@@H](c5ccccc5)N5CCOCC5)[nH]4)cc3)cc2)[nH]1)c1ccccc1` [Compound 758] cannot be ordered by EC50: < 1 nM for the first, < 1 nM for the second.

`C[C@H](NC(=O)[C@@H]1CCCN1C(=O)[C@H](NC(=O)C1CC1)c1ccccc1)c1ccc(C#Cc2ccc(-c3cnc([C@@H]4CCCN4C(=O)[C@H](NC(=O)C4CC4)c4ccccc4)[nH]3)cc2)cc1` [Compound 191] and `COC(=O)N[C@@H](C(=O)N1CCC[C@H]1c1ncc(C#Cc2ccc(-c3ccc(-c4cnc([C@@H]5CCCN5C(=O)[C@@H](c5ccccc5)N5CCCCC5)[nH]4)cc3)cc2)[nH]1)c1ccccc1` [Compound 752] cannot be ordered by EC50: < 1 nM for the first, < 1 nM for the second.

`COC(=O)N[C@H](C(=O)N1CCC[C@H]1c1ncc(-c2ccc(C#Cc3ccc(-c4cnc([C@@H]5CCCN5C(=O)[C@@H](NC(=O)OC)C(C)(C)O)[nH]4)cc3)cc2)[nH]1)C(C)(C)O` [Compound 993] and `COC(=O)N[C@H](C(=O)N1CCC[C@H]1c1ncc(-c2ccc(C#Cc3ccc(-c4cnc([C@@H]5CCCN5C(=O)[C@H](C(C)C)N5CCOC5=O)[nH]4)cc3)cc2)[nH]1)C(C)C` [Compound 996] cannot be ordered by EC50: < 1 nM for the first, < 1 nM for the second.

First: COC(=O)NC1(C(=O)N2CCC[C@H]2c2ncc(-c3ccc(C#Cc4ccc5nc([C@@H]6CCCN6C(=O)C6(NC(=O)OC)CC6)[nH]c5c4)cc3)[nH]2)CC1 [Compound 1043]
Second: CC(C)[C@@H](NC(=O)C1CC1)C(=O)N1CCC[C@H]1c1ncc(C#Cc2ccc(C#Cc3cnc([C@@H]4CCCN4C(=O)[C@H](NC(=O)C4CC4)C(C)C)[nH]3)cc2)[nH]1 [Compound 302]
The EC50 of the first is lower: 10 to 999 nM for the first, > 1000 nM for the second.

Compared with `CC(C)[C@@H](NC(=O)C1CC1)C(=O)N1CCC[C@H]1C(=O)NCCc1ccc(C#Cc2cnc([C@@H]3CCCN3C(=O)[C@H](NC(=O)C3CC3)C(C)C)[nH]2)cc1` [Compound 127], `COC(=O)N[C@H](C(=O)N1CCC[C@H]1c1ncc(-c2ccc(C#Cc3ccc(-c4cnc([C@H](C)NC(=O)[C@@H](c5ccccc5)N(C)C)[nH]4)cc3)cc2)[nH]1)C(C)C` [Compound 983] is lower in EC50: 10 to 999 nM for the first, < 1 nM for the second. The second is the more potent here.
